Results as given in publication doi:10.1101/2021.04.08.439011v1 (biorxiv, 2021).
Like-named read-outs stand apart in the source and are kept apart here.

Tests used:
[1] = target: DAPK2 (Homo sapiens, UniProt Q9UIK4); conditions: 1 µM; binder
[2] = target: EPHA7 (Homo sapiens, UniProt Q15375); conditions: 1 µM; binder
[3] = target: STK36 (Homo sapiens, UniProt Q9NRP7); conditions: 1 µM; binder
[4] = target: TYK2 (Homo sapiens, UniProt P29597); conditions: binder
[5] = target: MLK3 (Homo sapiens, UniProt Q16584); conditions: 1 µM; binder
[6] = target: BRAF(V600E) (Homo sapiens, UniProt P15056, V600E); conditions: 1 µM; binder
[7] = target: GSK3A (Homo sapiens, UniProt P49840); conditions: 1 µM; binder
[8] = target: ABL1-phosphorylated (Homo sapiens, UniProt P00519); conditions: 1 µM; binder
[9] = target: PRKCE (Homo sapiens, UniProt Q02156); conditions: 1 µM; binder
Chain of PRKCE (Q02156 whole entry): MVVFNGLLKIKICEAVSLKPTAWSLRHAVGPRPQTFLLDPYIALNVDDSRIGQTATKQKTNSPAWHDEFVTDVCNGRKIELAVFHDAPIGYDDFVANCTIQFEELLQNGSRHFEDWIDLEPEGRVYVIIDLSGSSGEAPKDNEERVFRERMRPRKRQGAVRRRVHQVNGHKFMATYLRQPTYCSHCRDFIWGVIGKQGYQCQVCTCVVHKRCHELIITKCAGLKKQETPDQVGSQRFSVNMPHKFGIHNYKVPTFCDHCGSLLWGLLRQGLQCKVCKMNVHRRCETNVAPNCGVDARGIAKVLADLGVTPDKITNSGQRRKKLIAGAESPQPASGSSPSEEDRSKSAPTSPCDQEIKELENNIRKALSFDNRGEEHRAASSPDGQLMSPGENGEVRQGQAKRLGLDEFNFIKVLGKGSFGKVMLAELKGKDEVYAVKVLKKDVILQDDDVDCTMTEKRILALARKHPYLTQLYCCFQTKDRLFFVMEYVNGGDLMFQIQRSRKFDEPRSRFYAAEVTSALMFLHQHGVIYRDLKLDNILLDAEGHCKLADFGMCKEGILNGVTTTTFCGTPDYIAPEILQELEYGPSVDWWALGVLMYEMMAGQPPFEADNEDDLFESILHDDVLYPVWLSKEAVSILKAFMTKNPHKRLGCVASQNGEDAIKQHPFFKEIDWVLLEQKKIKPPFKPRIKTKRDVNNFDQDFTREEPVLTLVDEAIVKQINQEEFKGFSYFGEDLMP

[10] = target: WNK2 (Homo sapiens, UniProt Q9Y3S1); conditions: 1 µM; binder
[11] = target: KIT(V559D,V654A) (Homo sapiens, UniProt P10721, V559D/V654A); conditions: 1 µM; binder
Chain of KIT(V559D,V654A) (P10721 whole entry V559D/V654A): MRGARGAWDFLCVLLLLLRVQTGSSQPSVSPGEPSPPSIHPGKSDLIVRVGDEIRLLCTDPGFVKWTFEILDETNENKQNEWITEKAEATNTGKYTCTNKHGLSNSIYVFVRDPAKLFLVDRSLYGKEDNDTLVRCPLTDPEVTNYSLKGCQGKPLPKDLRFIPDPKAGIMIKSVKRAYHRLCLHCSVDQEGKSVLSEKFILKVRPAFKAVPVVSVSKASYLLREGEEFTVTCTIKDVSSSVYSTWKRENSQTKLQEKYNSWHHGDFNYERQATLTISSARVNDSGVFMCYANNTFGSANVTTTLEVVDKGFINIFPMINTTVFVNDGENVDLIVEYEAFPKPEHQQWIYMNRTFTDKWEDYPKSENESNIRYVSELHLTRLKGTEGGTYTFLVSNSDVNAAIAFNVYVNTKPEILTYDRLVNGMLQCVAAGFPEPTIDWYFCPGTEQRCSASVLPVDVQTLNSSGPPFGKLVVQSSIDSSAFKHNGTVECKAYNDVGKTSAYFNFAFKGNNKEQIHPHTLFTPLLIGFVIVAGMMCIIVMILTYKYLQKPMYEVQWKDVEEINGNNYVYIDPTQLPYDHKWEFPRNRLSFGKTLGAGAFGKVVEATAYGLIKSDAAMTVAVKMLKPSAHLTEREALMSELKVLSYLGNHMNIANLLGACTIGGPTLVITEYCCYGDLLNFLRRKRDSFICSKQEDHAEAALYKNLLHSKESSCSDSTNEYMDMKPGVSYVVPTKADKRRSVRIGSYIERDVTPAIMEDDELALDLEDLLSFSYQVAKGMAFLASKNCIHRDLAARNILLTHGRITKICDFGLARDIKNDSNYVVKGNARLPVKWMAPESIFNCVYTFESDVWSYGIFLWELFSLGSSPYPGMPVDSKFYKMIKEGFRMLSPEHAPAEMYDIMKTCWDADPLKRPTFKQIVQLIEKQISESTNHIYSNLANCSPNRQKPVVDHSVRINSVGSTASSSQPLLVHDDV

[12] = target: MERTK (Homo sapiens, UniProt Q12866); conditions: 1 µM; binder
[13] = target: ABL1(T315I) (Homo sapiens, UniProt P00519, T315I); conditions: nonphosphorylated; 1 µM; binder
[14] = target: TSSK1B (Homo sapiens, UniProt Q9BXA7); conditions: 1 µM; binder
[15] = target: RIPK4 (Homo sapiens, UniProt P57078); conditions: 1 µM; binder
[16] = target: CAMK2D (Homo sapiens, UniProt Q13557); conditions: 1 µM; binder
[17] = target: EPHA2 (Homo sapiens, UniProt P29317); conditions: 1 µM; binder
[18] = target: CSF1R-autoinhibited (Homo sapiens, UniProt P07333); conditions: 1 µM; binder
[19] = target: DSTYK (Homo sapiens, UniProt Q6XUX3); conditions: 1 µM; binder
[20] = target: MINK (Homo sapiens, UniProt Q8N4C8); conditions: 1 µM; binder
[21] = target: MUSK (Homo sapiens, UniProt O15146); conditions: 1 µM; binder
[22] = target: EPHB6 (Homo sapiens, UniProt O15197); conditions: 1 µM; binder
[23] = target: GCN2(Kin.Dom.2,S808G) (Homo sapiens, UniProt Q9P2K8, S808G); conditions: 1 µM; binder
[24] = target: FES (Homo sapiens, UniProt P07332); conditions: 1 µM; binder
[25] = target: MST1R (Homo sapiens, UniProt Q04912); conditions: 1 µM; binder
[26] = target: FGFR3(G697C) (Homo sapiens, UniProt P22607, G697C); conditions: 1 µM; binder
Chain of FGFR3(G697C) (P22607 whole entry G697C): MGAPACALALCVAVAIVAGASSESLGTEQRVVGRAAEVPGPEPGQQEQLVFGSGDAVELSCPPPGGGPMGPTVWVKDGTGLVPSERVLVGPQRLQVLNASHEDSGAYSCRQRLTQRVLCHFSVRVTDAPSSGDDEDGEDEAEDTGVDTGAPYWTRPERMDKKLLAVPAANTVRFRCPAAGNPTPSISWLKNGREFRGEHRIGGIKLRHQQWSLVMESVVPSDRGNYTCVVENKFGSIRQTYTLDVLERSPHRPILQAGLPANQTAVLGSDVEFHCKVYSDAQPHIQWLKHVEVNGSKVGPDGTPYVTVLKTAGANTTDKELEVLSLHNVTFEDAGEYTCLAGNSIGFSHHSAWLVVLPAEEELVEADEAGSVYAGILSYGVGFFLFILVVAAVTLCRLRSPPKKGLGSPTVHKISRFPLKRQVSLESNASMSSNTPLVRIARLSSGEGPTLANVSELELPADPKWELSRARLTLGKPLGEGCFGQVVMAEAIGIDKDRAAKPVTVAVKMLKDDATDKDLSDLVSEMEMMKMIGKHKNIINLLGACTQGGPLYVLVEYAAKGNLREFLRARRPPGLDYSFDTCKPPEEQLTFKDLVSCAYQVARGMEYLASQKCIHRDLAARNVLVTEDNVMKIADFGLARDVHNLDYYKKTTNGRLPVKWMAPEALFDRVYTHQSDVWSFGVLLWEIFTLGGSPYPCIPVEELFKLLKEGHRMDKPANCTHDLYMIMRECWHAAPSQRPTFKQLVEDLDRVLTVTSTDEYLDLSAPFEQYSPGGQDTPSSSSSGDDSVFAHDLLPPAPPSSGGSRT

[27] = target: YSK1 (Homo sapiens, UniProt O00506); conditions: 1 µM; binder
[28] = target: TGFBR2 (Homo sapiens, UniProt P37173); conditions: 1 µM; binder
Chain of TGFBR2 (P37173 whole entry): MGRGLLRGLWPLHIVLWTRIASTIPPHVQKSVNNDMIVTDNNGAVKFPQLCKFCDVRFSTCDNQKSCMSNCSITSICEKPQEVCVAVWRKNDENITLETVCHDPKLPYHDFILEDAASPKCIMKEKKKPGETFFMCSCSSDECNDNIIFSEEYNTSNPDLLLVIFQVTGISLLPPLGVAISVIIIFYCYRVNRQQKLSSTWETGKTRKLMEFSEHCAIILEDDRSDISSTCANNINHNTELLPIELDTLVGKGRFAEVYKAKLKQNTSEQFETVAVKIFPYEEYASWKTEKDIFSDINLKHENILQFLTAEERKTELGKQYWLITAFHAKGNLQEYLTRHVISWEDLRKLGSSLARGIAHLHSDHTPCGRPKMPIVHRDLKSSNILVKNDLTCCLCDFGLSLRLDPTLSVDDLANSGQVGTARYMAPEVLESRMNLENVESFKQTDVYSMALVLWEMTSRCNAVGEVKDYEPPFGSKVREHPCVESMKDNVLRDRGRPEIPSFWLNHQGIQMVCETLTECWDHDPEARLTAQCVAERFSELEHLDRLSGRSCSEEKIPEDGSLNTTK

[29] = target: ULK2 (Homo sapiens, UniProt Q8IYT8); conditions: 1 µM; binder
[30] = target: p38-delta (Homo sapiens, UniProt O15264); conditions: 1 µM; binder
Chain of p38-delta (O15264 whole entry): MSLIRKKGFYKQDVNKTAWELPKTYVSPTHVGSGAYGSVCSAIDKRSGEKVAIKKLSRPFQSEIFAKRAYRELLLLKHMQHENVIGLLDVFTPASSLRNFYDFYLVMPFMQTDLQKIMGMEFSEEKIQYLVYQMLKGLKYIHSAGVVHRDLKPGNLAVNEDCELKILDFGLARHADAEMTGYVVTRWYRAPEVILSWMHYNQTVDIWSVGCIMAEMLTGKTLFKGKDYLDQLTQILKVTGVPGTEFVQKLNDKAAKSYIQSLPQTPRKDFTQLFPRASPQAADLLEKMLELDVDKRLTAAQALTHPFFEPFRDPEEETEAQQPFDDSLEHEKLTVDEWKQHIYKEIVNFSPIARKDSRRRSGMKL

Chain of TYK2 (P29597 whole entry): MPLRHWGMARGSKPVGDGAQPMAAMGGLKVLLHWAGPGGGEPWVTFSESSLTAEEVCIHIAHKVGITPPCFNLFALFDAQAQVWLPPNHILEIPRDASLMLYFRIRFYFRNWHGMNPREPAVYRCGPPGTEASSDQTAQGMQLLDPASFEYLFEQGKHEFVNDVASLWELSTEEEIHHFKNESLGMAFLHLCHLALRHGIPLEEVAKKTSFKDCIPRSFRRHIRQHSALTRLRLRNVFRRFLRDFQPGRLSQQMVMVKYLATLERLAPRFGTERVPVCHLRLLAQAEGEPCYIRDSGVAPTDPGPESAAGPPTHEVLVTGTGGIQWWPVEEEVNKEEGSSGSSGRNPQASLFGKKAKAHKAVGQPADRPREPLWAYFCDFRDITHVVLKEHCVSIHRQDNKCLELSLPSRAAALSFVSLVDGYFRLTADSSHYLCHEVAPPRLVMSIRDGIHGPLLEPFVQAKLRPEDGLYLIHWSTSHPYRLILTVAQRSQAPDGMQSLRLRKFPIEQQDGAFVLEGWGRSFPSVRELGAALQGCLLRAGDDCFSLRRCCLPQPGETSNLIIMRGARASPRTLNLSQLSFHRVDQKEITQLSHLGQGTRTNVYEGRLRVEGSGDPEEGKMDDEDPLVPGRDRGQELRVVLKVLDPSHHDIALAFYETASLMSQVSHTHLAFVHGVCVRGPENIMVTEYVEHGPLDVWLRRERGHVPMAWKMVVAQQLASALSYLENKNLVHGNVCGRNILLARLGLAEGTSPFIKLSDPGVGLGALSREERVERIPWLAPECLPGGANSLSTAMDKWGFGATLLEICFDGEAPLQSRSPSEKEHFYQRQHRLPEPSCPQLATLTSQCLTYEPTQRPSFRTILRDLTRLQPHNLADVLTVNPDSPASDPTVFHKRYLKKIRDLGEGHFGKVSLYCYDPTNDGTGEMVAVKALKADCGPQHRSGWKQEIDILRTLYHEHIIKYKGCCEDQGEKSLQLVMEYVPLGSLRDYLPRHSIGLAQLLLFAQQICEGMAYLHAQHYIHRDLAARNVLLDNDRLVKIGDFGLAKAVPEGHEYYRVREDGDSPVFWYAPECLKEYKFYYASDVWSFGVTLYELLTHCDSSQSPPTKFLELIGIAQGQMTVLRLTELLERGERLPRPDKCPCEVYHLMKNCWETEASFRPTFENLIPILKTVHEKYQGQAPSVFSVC
Chain of DAPK2 (Q9UIK4 whole entry): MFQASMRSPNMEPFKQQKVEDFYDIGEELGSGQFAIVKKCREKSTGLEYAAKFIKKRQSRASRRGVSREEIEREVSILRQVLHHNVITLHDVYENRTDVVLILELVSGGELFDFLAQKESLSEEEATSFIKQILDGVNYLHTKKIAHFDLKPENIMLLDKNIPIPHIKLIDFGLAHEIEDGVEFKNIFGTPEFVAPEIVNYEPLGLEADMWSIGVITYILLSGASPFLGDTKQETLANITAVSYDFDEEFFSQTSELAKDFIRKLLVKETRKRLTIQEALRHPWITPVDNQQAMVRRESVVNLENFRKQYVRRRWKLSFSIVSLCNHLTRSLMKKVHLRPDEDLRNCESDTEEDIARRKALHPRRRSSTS

SMILES: CNc1ncc2cc(-c3ccc(-c4cccc(C)n4)cc3Cl)c(=O)n(C[C@H]3OC[C@H](N)CO3)c2n1 [compound 6, G-5555]
- Percent Control [1]: 100%
- Percent Control [2]: 100%
- Percent Control [3]: 2.9%
- Percent Control ([4]; JH1 domain catalytic): 74%
- Percent Control ([4]; JH2 domain pseudokinase, 1 µM): 98%
- Percent Control [5]: 100%
- Percent Control [6]: 93%
- Percent Control [7]: 100%
- Percent Control [8]: 95%
- Percent Control [9]: 71%
- Percent Control [10]: 88%
- Percent Control [11]: 100%
- Percent Control [12]: 100%
- Percent Control [13]: 100%
- Percent Control [14]: 100%
- Percent Control [15]: 100%
- Percent Control [16]: 100%
- Percent Control [17]: 100%
- Percent Control [18]: 84%
- Percent Control [19]: 91%
- Percent Control [20]: 26%
- Percent Control [21]: 100%
- Percent Control [22]: 9%
- Percent Control [23]: 63%
- Percent Control [24]: 84%
- Percent Control [25]: 48%
- Percent Control [26]: 100%
- Percent Control [27]: 36%
- Percent Control [28]: 100%
- Percent Control [29]: 100%
- Percent Control [30]: 100%
